# Patent publication US20100168176A1, “NOVEL COMPOUNDS, PHARMACEUTICAL COMPOSITIONS CONTAINING SAME, AND METHODS OF USE FOR SAME” (FASGEN LLC, priority 2006, published 2010)
# What was measured:
# [1] = system: MCF-7 human breast cancer cells; assay: [14C]acetate incorporation into total lipids; assay type: cell-based; details: MCF7
# Description: Measurement of [^14 C]acetate Incorporation into Total Lipids and Determination of IC50 of Compounds
# This assay measures the incorporation of [^14C]acetate into total lipids and is a measure of fatty acid synthesis pathway activity in vitro. It is utilized to measure inhibition of fatty acid synthesis in vitro.
# MCF-7 human breast cancer cells cultured as above, are plated at 5×10^4 cells per well in 24-well plates. Following overnight incubation, the compounds to be tested, solubilized in DMSO, are added at 5, 10, and 20 μg/ml in triplicate, with lower concentrations tested if necessary. DMSO is added to triplicate wells for a vehicle control. C75 is run at 5 and 10 μg/ml in triplicate as positive controls. After 4 hours of incubation, 0.25 μCi of [^14C]acetate (10 μl volume) is added to each well.
# After 2 hours of additional incubation, medium is aspirated from the wells and 800 μl of chloroform:methanol (2:1) and 700 μl of 4 mM MgCl2 is added to each well. Contents of each well are transferred to 1.5 Eppendorf tubes, and spun at full-speed for 2 minutes in a high-speed Eppendorf Microcentrifuge 5415D. After removal of the aqueous (upper) layer, an additional 700 μl of chloroform:methanol (2:1) and 500 μl of 4 mM MgCl2 are added to each tube and then centrifuged for 1 minutes as above. The aqueous layer is removed with a Pasteur pipette and discarded. An additional 400 μl of chloroform:methanol (2:1) and 200 μl of 4 mM MgCl2 are added to each tube, then centrifuged and aqueous layer is discarded. The lower (organic) phase is transferred into a scintillation vial and dried at 40° C. under N2 gas. Once dried, 3 ml of scintillant (APB #NBC5104) is added and vials are counted for ^14C. The Beckman Scintillation counter calculates the average cpm values for triplicates.
# The IC50 for the compounds is defined as the concentration of drug leading to a 50% reduction in [^14C]acetate incorporation into lipids compared to controls. This is determined by plotting the average cpm for each inhibitor concentration tested, performing linear regression and computing the best-fit line, r^2 values, and 95% confidence intervals. The average cpm values are computed by the Beckman scintillation counter (Model LS6500) for each compound concentration. Computation of linear regression, best-fit line, r^2, and 95% confidence intervals are calculated using Prism Version 3.0 (Graph Pad Software).
# [2] = system: MCF-7 human breast cancer cells; assay: Crystal violet cell growth assay, MCF-7; assay type: cell-based; details: MCF7, no cell code printed, MCF-7 per method, 72 hours, read-out: Cr. Violet (IC50)
# Description: Crystal Violet Cell Growth Assay
# The crystal violet assay measure cell growth but not cytotoxicity. This assay employs crystal violet staining of fixed cells in 96-well plates with subsequent solubilization and measurement of OD490 on a spectrophotometer. The OD490 corresponds to cell growth per unit time measured. Cells are treated with the compounds of interest or vehicle controls and IC50 for each compound is computed.
# To measure the cytotoxicity of specific compounds against cancer cells, 5×10^4 MCF-7 human breast cancer cells, obtained from the American Type Culture Collection are plated per well in 24 well plates in DMEM medium with 10% fetal bovine serum, penicillin, and streptomycin. Following overnight culture at 37° C. and 5% CO2, the compounds to be tested, dissolved in DMSO, are added to the wells in 1 μl volume at the following concentrations: 50, 40, 30, 20, and 10 μg/ml in triplicate. […]
# After 72 hours of incubation, cells are stained with 0.5 ml of Crystal Violet stain (0.5% in 25% methanol) in each well. […] Following transfer of 100 μl from each well to a 96-well plate, plates are read at OD490 on a Molecular Devices SpectraMax Plus Spectrophotometer Average OD490 values are computed using SOFTmax Pro Software (Molecular Devices) and IC50 values are determined by linear regression analysis using Prism version 3.02 (Graph Pad Software, San Diego).
# [3] = Weight loss screen in Balb/C mice; assay type: in vivo; details: 60 mg/kg intraperitoneally, day 1
# Description: Weight Loss Screen for Novel FAS Inhibitors
# Balb/C mice (Jackson Labs) are utilized for the initial weight loss screening. Animals are housed in temperature and 12 hour day/night cycle rooms and fed mouse chow and water ad lib. Three mice are utilized for each compound tested with vehicle controls in triplicate per experiment. For the experiments, mice are housed separately for each compound tested three mice to a cage. Compounds are diluted in DMSO at 10 mg/ml and mice are injected intraperitoneally with 60 mg/kg in approximately 100 μl of DMSO or with vehicle alone. Mice are observed and weighed daily; average weights and standard errors are computed with Excel (Microsoft). The experiment continues until treated animals reach their pretreatment weights.
IC50 [1],IC50 [2],SMILES,Weight Loss [3]
39.8 ± 12.7 µg/mL,7.6 µg/mL,"CCCCCCCCC1(C)SC(=O)C=C1OCC(=O)NNc1ccccc1Cl (centres unmarked) [Compound 19, (5-Methyl-5-octyl-2-oxo-thiophen-4-yloxy)-acetic-acid-N′-(2-chlorophenyl)-hydrazide]",60 mg/kg: +3.0% (day 1)
17.4 µg/mL,18.2 µg/mL,CCCCCCCCC1(C)SC(=O)C=C1OCC(=O)NNC(=O)c1ccncc1 (centres unmarked) [Compound 20],
